The source of these data is patent US6737425B1, “N,N-substituted cyclic amine derivatives” (Eisai Co., Ltd., priority 1998, dated 2004).

Where a name gives a salt, the structure may show the parent alone.

Broadly, the IC50 is the concentration that inhibits the measured activity by half.

Assay [1] concerns glutamic acid release from rat cerebral cortex slices. Kind of assay: Inhibitory activity on glutamic acid release (cerebral cortex slices, high-conc. KCl). It is filed as cell-based. Particulars: glutamic acid release induced with 50 mM KCl, HPLC. Here is the method:
Inhibitory Activity on Glutamic Acid Release
Cerebral cortexes were isolated from SD strain male rats (8-week-old) and used to prepare 300 μm×300 μm slices by use of a slice chopper. The prepared slices were incubated at 37° C. for 30 minutes in solution C (120 mM NaCl, 4 mM KCl, 10 mM MgSO4, 16 mM NaHCO3, 10 mM glucose, 1 mM NaH2PO4, 10 mM HEPES-NaOH pH 7.4) in the presence of 95% O2/5% CO2. Thereafter, solution C was exchanged with fresh one, followed by further incubation for 30 minutes.
The cerebral cortex slices were incubated in a 24-wells plate for cell culture according to a multi-well method (Brain Res., 402, 255-263, 1987), and the release of glutamic acid was induced with 50 mM KCl. Solution D (120 mM NaCl, 4 mM KCl, 1.2 mM CaCl2, 1 mM MgSO4, 16 mM NaHCO3, 10 mM glucose, 1 mM NaH2PO4, 10 mM HEPES-NaOH pH 7.4) was aerated with 95% O2/5% CO2 and kept at 37° C. and used in this experiment. 50 mM KCl containing the same total amount of K^+ and Na^+ was prepared. Slices corresponding to 1 to 2 mg protein were placed on an upper cup provided with a mesh at the bottom, and 1.3 ml solution C or 50 mM KCl solution was introduced into a lower well, and the upper cup was transferred to a new well. 20 minutes before and 5 minutes after reaction was intiated, the test compound was added to solution D or 50 mM KCl.
Glutamic acid was quantified by HPLC using fluorescent etor (Ex. 330 nm Em. […]). The eluting solvent used was prepared by diluting 150 ml sodium citrate buffer for automatic amino acid analysis (Wako Pure Chemical Industries) 10-fold with distilled water, then adding MgCl2 thereto at the final concentration of 50 mM, and further diluting it twice with acetonitrile. The flow rate was 2.0 ml/min. The column used was Asahipak (ES-502N Denko, K. K.). The glutamic acid was converted into a derivative by addition, to 50 μl sample, of 50 μl deriving agent (10 mg o-phthalaldehyde/500 μl MeOH, 10 μl b-mercaptopropionic acid, 0.15 M sodium borate buffer pH 9.5, 100 μl) followed by stirring (Neuroscience Lett., 96, 202-206, 1989).

The subject of assay [2] is voltage-dependent calcium channels (cerebral cortex synaptosome). Nature of the assay: Measurement of voltage-dependent calcium channel activity by the use of a fluorescent pigment (fura 2). The assay is classed as cell-based. To be noted: rat cerebral cortex synaptosome, fura 2, KCl stimulation, compound incubated 10 minutes. How it is done: Measurement of Voltage-dependent Calcium Channel Activity by the use of a Fluorescent Pigment (fura 2)
Cerebral cortexes were removed from cut rat brains and disrupted roughly with scissors. These were introduced into a homogenizer, homogenized in 0.3 M saccharose and centrifuged at 4° C. (1,500 g×10 min). The resulting supernatant was further centrifuged at 4° C. (10,000 g×20 min). The resulting precipitates were suspended in 0.3 M saccharose. The suspension was layered on 0.8 M saccharose and centrifuged (10,000 g×30 min.).
4 μM fura 2/AM (Dojin Ltd.) was suspended in solution A to prepare a loading solution. To the synaptosome solution prepared in the method described above was added an equal volume of the loading solution, and the mixture was incubated for 40 minutes at room temperature.
As comparative and control compound, verapamil hydrochloride was used.

For the molecule `CC(C)C(C#N)(CCCN1CCN(CCOc2ccc(F)cc2)CC1)c1ccc(F)cc1` (centres unmarked) [Example 24, 1-{[4-Cyano-5-methyl-4-(4-fluorophenyl)hexyl]}-4-[2-(4-fluorophenoxy)ethyl]piperazine], the IC50 in assay [1] (Rattus norvegicus) is 2.4 µM; in assay [2], 3.9 µM.

In the case of `Cc1ccc(C(C#N)(CCCN2CCN(CCOc3ccc(F)cc3)CC2)C(C)C)cc1` (centres unmarked) [Example 9, 1-[4-Cyano-5-methyl-4-(4-methylphenyl)hexyl]-4-[2-(4-fluorophenoxy)ethyl]piperazine], the values for the IC50 in assay [1] (Rattus norvegicus) and in assay [2] were 2.4 µM and 3.5 µM, respectively.

Regarding `CC(C)C(C#N)(CCCN1CCN(CCOc2ccc(F)cc2)CC1)c1ccc(Cl)cc1` (centres unmarked) [Example 10, 1-[4-Cyano-5-methyl-4-(4-chlorophenyl)hexyl]-4-[2-(4-fluorophenoxy)ethyl]piperazine], the IC50 turned out to be 2 µM in assay [1] (Rattus norvegicus) and 3.2 µM in assay [2].

With `CC(C)C(C#N)(CCCN1CCN(CCOc2ccc(Cl)cc2)CC1)c1ccccc1` (centres unmarked) [Example 36, 1-[(4-Cyano-5-methyl-4-phenyl)hexyl]-4-[2-(4-chlorophenoxy)ethyl]piperazine], the IC50 came out at 4.2 µM in assay [1] (Rattus norvegicus) and 3.4 µM in assay [2].

Turning to `N#CC(CCCN1CCN(CCOc2ccc(F)cc2)CC1)(c1ccccc1)C1CCCCC1` (single isomer, unassigned; (-)) [Example 79, (−)-1-[(4-Cyano-4-cyclohexyl-4-phenyl)butyl]-4-[2-(4-fluorophenoxyl)ethyl]piperazine Hydrochloride], the results for the IC50 in assay [1] (Rattus norvegicus) and in assay [2] (Hydrochloride) were 5.9 µM and 3.3 µM, respectively.

Turning to `CC(C)C(C#N)(CCCN1CCN(CCN(C)c2ccc(F)cc2)CC1)c1ccccc1` (centres unmarked) [Example 52, 1-[(4-Cyano-5-methyl-4-phenyl)hexyl]-4-{2-[N-(4-fluorophenyl)-N-methylamino]ethyl}piperazine], the IC50 in assay [1] (Rattus norvegicus) turned out to be 2.9 µM; in assay [2], 3.8 µM.

Regarding `CC(C)C(C#N)(CCCN1CCN(CCOc2ccc(F)cc2)CC1)c1ccccc1` (single isomer, unassigned; (+)) [Example 76, (+)-1-[(4-Cyano-5-methyl-4-phenyl)hexyl]-4-[2-(4-fluorophenoxyl)ethyl]piperazine Hydrochloride], the IC50 stood at 3.9 µM in assay [1] (Hydrochloride) and 5.8 µM in assay [2] (Hydrochloride).

In the case of `COc1ccc(C(C#N)(CCCN2CCN(CCOc3ccc(F)cc3)CC2)C(C)C)cc1` (centres unmarked) [Example 11, 1-[4-Cyano-5-methyl-4-(4-methoxyphenyl)hexyl]-4-[2-(4-fluorophenoxy)ethyl]piperazine], the IC50 in assay [1] (Rattus norvegicus) came out at 3.8 µM; in assay [2], 4.8 µM.

Take `CC(C)C(C#N)(CCCN1CCN(CCOc2ccc(F)cc2)CC1)c1ccccc1F` (centres unmarked) [Example 22, 1-{[4-Cyano-5-methyl-4-(2-fluorophenyl)hexyl]}-4-[2-(4-fluorophenoxy)ethyl]piperazine]: the IC50 in assay [1] (Rattus norvegicus) was determined as 4.1 µM; in assay [2], 5.4 µM.

In the case of `CC(C)C(C#N)(CCCN1CCN(CCOc2ccc(F)cc2)CC1)c1ccccc1` (single isomer, unassigned; (-)) [Example 75, hydrochloride], the IC50 amounted to 2.9 µM in assay [1] (Rattus norvegicus) and 4.5 µM in assay [2] (Hydrochloride).

For the molecule `CC(C)C(C#N)(CCCN1CCN(CCOc2ccc(F)cc2)CC1)c1cccc(F)c1` (centres unmarked) [Example 23, 1-[{4-Cyano-5-methyl-4-(3-flourophenyl)hexyl]}-4-[2-(4-fluorophenoxy)ethyl]piperazine], the IC50 was 2.5 µM in assay [1] (Rattus norvegicus) and 4.3 µM in assay [2].

With `CC(=O)N(CCN1CCN(CCCC(C#N)(c2ccccc2)C(C)C)CC1)Cc1ccccc1` (centres unmarked) [Example 56, 1-[(4-Cyano-5-methyl-4-phenyl)hexyl]-4-[2-(N-acetyl-N-benzylamino)ethyl]piperazine], in assay [2], the IC50 turned out to be 16 µM.

For `CC(C)C(C#N)(CCCN1CCN(CCOc2cccnc2)CC1)c1ccccc1` (centres unmarked) [Example 100, 1-[(4-Cyano-5-methyl-4-phenyl)hexyl]-4-[2-(3-pyridyloxy)ethyl]piperazine], the IC50 in assay [2] was > 16 µM.

For `CC(CCC(C#N)(c1ccccc1)C(C)C)N1CCN(CCOc2ccc(F)cc2)CC1` (centres unmarked) [Example 97, 1-[{2-(5-Cyano-6-methyl-5-phenyl)heptyl}]-4-[2-(4-fluorophenoxy)ethyl]piperazine], the 50% inhibitory concentration (IC50) in assay [2] amounted to 3.9 µM.

With `CC(C)C(C#N)(CCCN1CCN(CCOc2cccc(/C=C/C#N)c2)CC1)c1ccccc1` (centres unmarked) [Example 121, 1-[(4-Cyano-5-methyl-4-phenyl)hexyl]-4-{2-[3-(2-cyanovinyl)phenoxy]ethyl}piperazine], the IC50 in assay [2] was determined as 6.8 µM.

For `CC(C)C(C#N)(CCCN1CCN(CCOc2ncccn2)CC1)c1ccccc1` (centres unmarked) [Example 112, 1-[(4-Cyano-5-methyl-4-phenyl)hexyl]-4-[2-(2-pyrimidinyloxy)ethyl]piperazine], in assay [2], the 50% inhibitory concentration (IC50) is > 16 µM.

For `CC(C)C(C#N)(CCCN1CCN(CCOc2ccccc2Br)CC1)c1ccccc1` (centres unmarked) [Example 110, 1-[(4-Cyano-5-methyl-4-phenyl)hexyl]-4-[2-(2-bromophenoxy)ethyl]piperazine], in assay [2], the IC50 is 3.5 µM.

Turning to `CC(C)C(C#N)(CCCN1CCN(CCOc2ccc(F)cc2)CC1)c1ccc(N)cc1` (centres unmarked) [Example 17, 1-[4-Cyano-5-methyl-4-(4-aminophenyl)hexyl]-4-[2-(4-fluorophenoxy)ethyl]piperazine], in assay [2], the IC50 was > 16 µM.

With `CC(C)C(C#N)(CCCN1CCN(CCOc2ccc(-c3cccnc3)cc2)CC1)c1ccccc1` (centres unmarked) [Example 106, 1-[(4-Cyano-5-methyl-4-phenyl)hexyl]-4-{2-[4-(3-pyridyl)phenoxy]ethyl}piperazine], the IC50 in assay [2] was 7 µM.

`CC(C)C(C#N)(CCN1CCCN(CCOc2ccc(F)cc2)CC1)c1ccccc1` (centres unmarked) [Example 4, 1-[(3-Cyano-4-methyl-3-phenyl)pentyl]-4-[2-(4-fluorophenoxy)ethyl]homopiperazine]: the IC50 in assay [2] amounted to 5.7 µM.

With `CC(C)C(C#N)(CCCN1CCN(CCCOc2ccc(F)cc2)CC1)c1ccccc1` (centres unmarked) [Example 2, 1-[(4-Cyano-5-methyl-4-phenyl)hexyl]-4-[3-(4-fluorophenoxy)propyl]piperazine], the 50% inhibitory concentration (IC50) in assay [2] is 4 µM.

On to `N#CC(CCCN1CCN(CCOc2ccc(F)cc2)CC1)(c1ccccc1)C1CCCCC1` (centres unmarked) [Example 38], for which the IC50 in assay [2] was 4 µM.

For `CCOC(=O)COc1cc(F)ccc1OCCN1CCN(CCCC(C#N)(c2ccccc2)C(C)C)CC1` (centres unmarked) [Example 86, 1-[(4-Cyano-5-methyl-4-phenyl)hexyl]-4-[2 (2-ethoxycarbonylmethoxy-4-fluorophenoxy)ethyl]piperazine], the IC50 in assay [2] came out at 4.3 µM.

As to `N#CC(F)(CCCN1CCN(CCOc2ccc(F)cc2)CC1)c1ccccc1` (centres unmarked) [Example 85, 1-[(4-Cyano-4-fluoro-4-phenyl)butyl]-4-[2-(4-fluorophenoxy)ethyl]piperazine], the IC50 in assay [2] is 16 µM.

As for `CC(C)C(C#N)(CCCN1CCN(CCOc2ccc(F)cc2O)CC1)c1ccccc1` (centres unmarked) [Example 84, 1-[(4-Cyano-5-methyl-4-phenyl)hexyl]-4-[2-(2-hydroxy-4-fluorophenoxy)ethyl]piperazine], the IC50 in assay [2] came to 6 µM.

`CC(C)C(C#N)(CCCN1CCN(CCOc2ccc([N+](=O)[O-])cc2)CC1)c1ccccc1` (centres unmarked) [Example 8, 1-[(4-Cyano-5-methyl-4-phenyl)hexyl]-4-[2-(4-nitrophenoxy)ethyl]piperazine]: in assay [2], the IC50 turned out to be 4.2 µM.

For `CC(C)C(C#N)(CCCN1CCN(CCOc2ccc(C(F)(F)F)cc2)CC1)c1ccccc1` (centres unmarked) [Example 102, 1-[(4-Cyano-5-methyl-4-phenyl)hexyl]-4-[2-(4-trifluoromethylphenoxy)ethyl]piperazine], the IC50 in assay [2] is 2.7 µM.
